The values below are quoted from earlier work in article PMC4177305 (ChemMedChem, 2014).

The target of series [1] is human serum albumin (Homo sapiens, UniProt P02768). The settings on record: reported affinity of MS-325 to human serum albumin.
Series [2] concerns human serum albumin (HSA). The settings on record: displaces site II ligands rather than site I ligands.
The conditions of series [3]: in humans.

Sequence of human serum albumin (P02768 25-609): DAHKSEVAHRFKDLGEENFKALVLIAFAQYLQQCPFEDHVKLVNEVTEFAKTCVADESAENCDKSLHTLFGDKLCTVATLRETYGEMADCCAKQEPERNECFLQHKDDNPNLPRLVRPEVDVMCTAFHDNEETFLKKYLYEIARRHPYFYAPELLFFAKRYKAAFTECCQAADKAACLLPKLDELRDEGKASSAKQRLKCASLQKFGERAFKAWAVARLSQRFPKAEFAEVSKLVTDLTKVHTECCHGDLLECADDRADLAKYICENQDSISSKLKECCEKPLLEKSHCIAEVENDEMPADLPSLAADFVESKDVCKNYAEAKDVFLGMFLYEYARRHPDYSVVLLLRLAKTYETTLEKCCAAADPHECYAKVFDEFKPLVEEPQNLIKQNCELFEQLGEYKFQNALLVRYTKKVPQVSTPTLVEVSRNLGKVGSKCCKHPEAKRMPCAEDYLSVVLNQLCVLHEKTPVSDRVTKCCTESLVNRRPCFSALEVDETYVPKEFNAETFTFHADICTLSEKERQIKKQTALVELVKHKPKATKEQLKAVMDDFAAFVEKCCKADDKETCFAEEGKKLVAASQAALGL

As usually defined, the Kd is a measure of binding affinity in units of concentration. As for `O=C([O-])CN(CCN(CC(=O)[O-])CC(COP(=O)([O-])OC1CCC(c2ccccc2)(c2ccccc2)CC1)N(CC(=O)[O-])CC(=O)[O-])CC(=O)[O-].[Gd+3].[Na+].[Na+].[Na+]` (stereo not drawn) [MS-325, gadofosveset trisodium], the Kd in series [1] was 164 µM. Besides, the albumin binding site result in series [2] is recorded as “binds primarily to site II”. Further, the intravascular half-life in series [3] was 18.5 ± 3 h.
